Measured values taken from the supplement of paper PMC10307832.

Assays:
Experiment in all cases: relative viability (nuclei count vs DMSO), 5 days (fraction); higher = more cells survive
EHT 1864 = compound: C1COCCN1CC2=CC(=O)C(=CO2)OCCCCCSC3=C4C=CC(=CC4=NC=C3)C(F)(F)F [EHT 1864]
Procedure, shortened: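 Viability was read as treated-well nuclei divided by vehicle-well nuclei, using the median across plates. Lung cancer cell lines in 1536-well plates were kept overnight at 37 °C, pinned with five √10-spaced library-drug doses, and after 5 days were Hoechst-stained, imaged at 4× and counted in MetaXpress. Plates passed only with control CV below 25% and at least one doubling.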

EHT 1864 + OSI-027 = compound: C1COCCN1CC2=CC(=O)C(=CO2)OCCCCCSC3=C4C=CC(=CC4=NC=C3)C(F)(F)F [EHT 1864] + COc1cccc2cc(-c3nc([C@H]4CC[C@H](C(=O)O)CC4)n4ncnc(N)c34)[nH]c12 [OSI-027] (partner 0.5 µM)
Procedure, shortened: (§1)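 Lung cancer cell lines, seeded in 1536-well plates, were treated the following day by pin tool with a single drug or with five library-drug doses (not always all listed) in √10 steps on top of a fixed anchor-drug dose. Cells were fixed and nuclei stained in one step after 5 days, and nuclei were counted. Relative viability is the nuclei count for treated wells divided by that for vehicle wells, reported as medians of duplicate plates.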

EHT 1864 + Phenformin = compound: C1COCCN1CC2=CC(=O)C(=CO2)OCCCCCSC3=C4C=CC(=CC4=NC=C3)C(F)(F)F [EHT 1864] + N=C(N)NC(=N)NCCc1ccccc1 [Phenformin] (partner 250 µM)
Procedure, shortened: as §1

EHT 1864 + Trametinib = compound: C1COCCN1CC2=CC(=O)C(=CO2)OCCCCCSC3=C4C=CC(=CC4=NC=C3)C(F)(F)F [EHT 1864] + CC(=O)Nc1cccc(-n2c(=O)n(C3CC3)c(=O)c3c(Nc4ccc(I)cc4F)n(C)c(=O)c(C)c32)c1 [Trametinib] (partner 0.02 µM)
Procedure, shortened: as §1

| Cell Line | relative viability (EHT 1864; 0.04 µM) | relative viability (EHT 1864; 0.1265 µM) | relative viability (EHT 1864; 0.4 µM) | relative viability (EHT 1864; 1.265 µM) | relative viability (EHT 1864; 4 µM) | relative viability (EHT 1864 + OSI-027; first compound 0.04 µM) | relative viability (EHT 1864 + OSI-027; first compound 0.1265 µM) | relative viability (EHT 1864 + OSI-027; first compound 0.4 µM) | relative viability (EHT 1864 + OSI-027; first compound 1.265 µM) | relative viability (EHT 1864 + OSI-027; first compound 4 µM) | relative viability (EHT 1864 + Phenformin; first compound 0.04 µM) | relative viability (EHT 1864 + Phenformin; first compound 0.1265 µM) | relative viability (EHT 1864 + Phenformin; first compound 0.4 µM) | relative viability (EHT 1864 + Phenformin; first compound 1.265 µM) | relative viability (EHT 1864 + Phenformin; first compound 4 µM) | relative viability (EHT 1864 + Trametinib; first compound 0.04 µM) | relative viability (EHT 1864 + Trametinib; first compound 0.1265 µM) | relative viability (EHT 1864 + Trametinib; first compound 0.4 µM) | relative viability (EHT 1864 + Trametinib; first compound 1.265 µM) | relative viability (EHT 1864 + Trametinib; first compound 4 µM) |
| --- | --- | --- | --- | --- | --- | --- | --- | --- | --- | --- | --- | --- | --- | --- | --- | --- | --- | --- | --- | --- |
| NCI-H2126 | 0.983 | 0.914 | 0.986 | 0.985 | 0.999 | 0.738 | 0.667 | 0.729 | 0.74 | 0.725 | 0.557 | 0.515 | 0.571 | 0.543 | 0.567 | 0.614 | 0.568 | 0.545 | 0.503 | 0.548 |
| NCI-H2170 | 0.904 | 0.889 | 0.996 | 1.06 | 1.01 | 0.787 | 0.582 | 0.803 | 0.795 | 0.702 | 0.442 | 0.349 | 0.392 | 0.368 | 0.37 | 0.893 | 0.779 | 0.911 | 0.886 | 0.911 |
| NCI-H2228 | 0.974 | 0.876 | 0.934 | 0.776 | 1 | 0.637 | 0.48 | 0.666 | 0.522 | 0.588 | 0.37 | 0.232 | 0.345 | 0.288 | 0.52 | 0.553 | 0.566 | 0.389 |  | 0.533 |
| NCI-H2342 | 0.778 | 0.856 | 0.803 | 0.929 | 1.03 | 0.529 | 0.555 | 0.576 | 0.573 | 0.636 | 0.546 | 0.52 | 0.621 | 0.523 | 0.678 | 0.71 | 0.681 | 0.759 | 0.874 | 0.935 |
| NCI-H2347 | 1.07 | 0.75 | 1.01 | 0.966 | 1.03 | 0.389 | 0.369 | 0.442 |  | 0.396 | 0.585 | 0.432 | 0.478 |  | 0.46 | 0.222 | 0.281 | 0.251 | 0.276 | 0.463 |
| NCI-H2405 | 1.07 | 1 | 0.994 | 0.821 | 0.994 | 0.655 | 0.647 | 0.642 | 0.535 | 0.714 | 0.445 | 0.42 | 0.44 | 0.289 | 0.37 | 0.688 | 0.587 | 0.744 | 0.644 | 0.612 |
| NCI-H3122 | 0.99 | 0.98 | 0.994 | 0.999 | 0.945 | 0.922 | 0.594 | 0.952 | 0.896 | 0.956 | 0.415 | 0.373 | 0.362 | 0.345 | 0.304 | 0.219 | 0.288 | 0.248 | 0.202 | 0.219 |
| PC-3 [JPC-3] | 1.1 | 0.908 | 1.02 | 1.05 | 0.953 | 0.743 | 0.575 | 0.742 | 0.732 | 0.646 | 0.507 | 0.439 | 0.451 | 0.478 | 0.51 | 0.641 | 0.649 | 0.763 | 0.727 | 0.695 |
| PC-14 | 1.01 | 0.823 | 1.04 | 1.03 | 0.939 | 0.813 | 0.75 | 0.814 | 1.05 | 0.88 | 0.652 |  | 0.615 | 0.594 | 0.513 | 0.741 | 0.672 | 0.796 | 0.68 | 0.88 |
| RERF-LC-KJ | 1.02 | 0.928 | 0.936 | 0.994 | 0.956 | 0.621 | 0.539 | 0.52 | 0.575 | 0.541 | 0.381 | 0.428 | 0.453 | 0.393 | 0.404 | 0.896 | 0.868 | 0.866 | 0.826 | 0.832 |
| SK-LU-1 | 1.07 | 0.93 | 1.01 | 0.993 | 0.939 | 0.357 | 0.262 | 0.32 | 0.33 | 0.312 | 0.538 | 0.36 | 0.52 | 0.575 | 0.587 | 0.594 | 0.516 | 0.477 | 0.378 | 0.464 |
| SK-MES-1 | 0.97 | 0.943 | 1.02 | 0.967 | 0.974 | 0.628 | 0.542 | 0.572 | 0.592 | 0.562 | 0.726 | 0.67 | 0.605 | 0.577 | 0.602 | 0.539 | 0.498 | 0.518 | 0.537 | 0.518 |
| SW 1573 | 1.03 | 0.817 | 1.01 | 0.931 | 0.902 | 0.592 | 0.54 | 0.605 | 0.482 | 0.55 | 0.436 | 0.34 | 0.347 | 0.334 | 0.382 | 0.622 |  | 0.437 | 0.398 | 0.444 |
| UMC-11 | 1 | 0.804 | 0.901 | 0.985 | 1.17 | 0.463 | 0.366 |  | 0.483 | 0.47 | 0.356 | 0.275 |  | 0.324 | 0.31 | 0.727 | 0.496 | 0.692 | 0.74 | 0.967 |
